# Laboratory results published in US20250214977A1, “STAT6 INHIBITORS AND USES THEREOF” (Kymera Therapeutics, Inc., priority 2024, published 2025).
# Tested on: Phosphorylation of STAT6 in human A549 cells
# Experiment: Phosphorylated STAT6 (pSTAT6) flow cytometry assay in human A549 cells
# Format: cell-based
# Conditions: read-out: STAT6 IL4 pSTAT6 assay in A549 cells: Average IC50
# Excerpt: Example 3. Phosphorylated STAT6 (pSTAT6) Flow Cytometry Assay in Human A549 Cells
# Phosphorylation of STAT6 in human A549 cells was quantitatively measured using flow cytometry technology.
row,Compound,IC50
1,COc1cc(-c2cc(C3=CCCN(C(=O)CCn4ccnn4)C3)cc3cc(C(=O)N(C)C)oc23)cc(OC)c1OC [Example I-1088],< 100 nM
2,COc1ccncc1-c1cc(C2=CCCN(C(=O)CCn3ccnn3)C2)c(F)c2[nH]c(C(=O)N3CCN(c4nc(C)c(F)cc4OC)CC3)cc12 [Example I-500],> 100000 nM
3,CCc1cnccc1-c1cc(C2=CCCN(C(=O)CCn3cccn3)C2)c(F)c2[nH]c(C(=O)N3CCN(c4ncc(OC)cc4OC)CC3)cc12 [Example I-684],< 100 nM
4,COc1ccccc1-c1cc(C2=CCCN(C(=O)CCn3ccnn3)C2)c(F)c2[nH]c(C(=O)N3CCC4(CC3)OCCO4)cc12 [Example I-1000],< 100 nM
5,CCc1cnccc1-c1cc(C2=CCCN(C(C)=O)C2)c(F)c2[nH]c(C(=O)N3CCN(c4ncc(F)cc4OC)CC3)cc12 [Example I-706],10000 to 100000 nM
6,COc1ccccc1-c1cc(C2=CCCN(C(=O)CCn3ccnn3)C2)c(F)c2sc(C(=O)N3CCN(c4ncccc4OC)CC3)cc12 [Example I-346],< 100 nM
7,CCc1nc(C)ccc1-c1cc(C2=CCCN(C(=O)CCn3ccnn3)C2)c(F)c2[nH]c(C(=O)N3CCN(c4ncc(F)cc4OC)CC3)cc12 [Example I-735],< 100 nM
8,COc1ccccc1-c1cc(C2=CCCN(C(=O)CCn3ccnn3)C2)c(F)c2[nH]c(C(=O)N3CCN(c4ncnc5[nH]cnc45)CC3)cc12 [Example I-946],< 100 nM
9,COc1cc(F)cnc1N1CCN(C(=O)c2cc3c(-c4cncc(C5CC5)c4)cc(C4=CCCN(C(=O)CCn5ccnn5)C4)c(F)c3[nH]2)CC1 [Example I-637],< 100 nM
10,CCc1cc(C)ncc1-c1cc(C2=CCCN(C(=O)CCc3nccs3)C2)c(F)c2[nH]c(C(=O)N3Cc4cnn(CC)c4C3)cc12 [Example I-538],< 100 nM
11,COc1c(-c2cc(C3=CCCN(C(=O)CCn4ccnn4)C3)c(F)c3[nH]c(C(=O)N4CCN(c5ncccc5OC5CC5)CC4)cc23)cnc2ccccc12 [Example I-447],< 100 nM
12,COc1cc(F)cnc1N1CCN(C(=O)c2cc3c(/C=C/C4CCCCC4)cc(C4=CCCN(C(=O)CCn5ccnn5)C4)c(F)c3[nH]2)CC1 [Example I-1163],100 to 1000 nM
13,COc1cccnc1N1CCN(C(=O)c2cc3c(-c4cnc5ccccc5c4OC)cc(C4=CCCN(C(=O)CCn5ccnn5)C4)c(F)c3[nH]2)CC1 [Example I-402],> 100000 nM
14,CCn1ncc2c1CN(C(=O)c1cc(-c3ccccc3OC)c3c(c1)cc(C1=CCCN(C(=O)CCn4ccnn4)C1)n3CC1CC1)C2 [Example I-530],< 100 nM
15,CCc1cc(C)ncc1-c1cc(C2=CCCN(C(=O)CCn3ccnn3)C2)c(F)c2[nH]c(C(=O)N3Cc4cnn(C)c4C3)cc12 [Example I-531],< 100 nM
16,COc1ccncc1-c1cc(C2=CCCN(C(=O)CCc3nccs3)C2)c(F)c2[nH]c(C(=O)N3CCN(c4ncccc4OC)CC3)cc12 [Example I-497],10000 to 100000 nM
17,COc1cccnc1N1CCN(C(=O)c2cc3c(-c4cccc5c4OC(F)(F)O5)cc(C4=CCCN(C(=O)CCn5ccnn5)C4)c(F)c3[nH]2)CC1 [Example I-690],< 100 nM
18,CCn1c(N2CCN(C(=O)c3cc4c(-c5ccccc5OC)cc(C5=CCCN(C(=O)CCn6ccnn6)C5)c(F)c4[nH]3)CC2)nc2ccccc21 [Example I-942],< 100 nM
19,CCc1ccccc1N1CCN(C(=O)c2cc3c(-c4ccccc4OC)cc(C4=CCCN(C(=O)CCn5ccnn5)C4)c(F)c3[nH]2)CC1 [Example I-969],100 to 1000 nM
20,CCc1ccc(-c2cc(C(=O)N3CCN(c4ncc(F)cc4OC)CC3)cc3cc(C4=CCCN(C(C)=O)C4)n(CC4CC4)c23)c(C)n1 [Example I-793],< 100 nM
21,CC(C(=O)N1CCC=C(c2ccc3cc(C(=O)N(C)C)[nH]c3c2)C1)n1ccccc1=O (stereo not drawn) [Example I-825],100 to 1000 nM
22,COc1ccccc1-c1cc(C2=CCCN(C(=O)CCn3ccnn3)C2)c(F)c2[nH]c(C(=O)N3CCN(c4cccc(OC(F)F)n4)CC3)cc12 [Example I-927],100 to 1000 nM
23,COc1ccccc1-c1cc(C2=CCCN(C(=O)CCn3ccnn3)C2)c(F)c2[nH]c(C(=O)N3CCC(=O)C3)cc12 [Example I-1031],< 100 nM
24,CCc1ccncc1-c1cc(C2=CCCN(C(=O)CC(=O)O)C2)c(F)c2[nH]c(C(=O)N3CCN(c4ncc(F)cc4OC)CC3)cc12 [Example I-786],< 100 nM
25,COc1ccccc1-c1cc(C2=CCCN(C(=O)C(C)C)C2)c(F)c2[nH]c(C(=O)N(C)C)cc12 [Example I-837],100 to 1000 nM
26,COc1ccccc1-c1cc(C2CCCN(C(=O)CCn3ccnn3)C2)c(F)c2[nH]c(C(=O)N(C)C)cc12 (stereo not drawn) [Example I-1193],< 100 nM
27,COc1cc(F)cnc1N1CCN(C(=O)c2cc3c(C4=CCCOC4)cc(C4=CCCN(C(=O)CCn5ccnn5)C4)c(F)c3[nH]2)CC1 [Example I-1126],< 100 nM
28,COc1ccccc1-c1cc(C2=CCCN(C(=O)CCn3ccnn3)C2)c(F)c2[nH]c(C(=O)N3CCN(Cc4noc(C)n4)CC3)cc12 [Example I-1201],< 100 nM

# Continued, values first:
row,IC50,Compound
1,100 to 1000 nM,"COC(=O)CCC#Cc1cccc2c1CC(C(=O)N1CCC=C(c3ccc4oc(C(=O)N(C)C)cc4c3)C1)N(C=O)C2 (stereo not drawn) [Example I-802, Methyl 5-(3-(5-(2-(dimethylcarbamoyl)benzofuran-5-yl)-1,2,3,6-tetrahydropyridine-1-carbonyl)-2-formyl-1,2,3,4-tetrahydroisoquinolin-5-yl)pent-4-ynoate]"
2,< 100 nM,COc1cnccc1-c1cc(C2=CCCN(C(=O)CCn3ccnn3)C2)c(F)c2[nH]c(C(=O)N3CCN(c4ncc(Cl)cc4OC)CC3)cc12 [Example I-457]
3,< 100 nM,COc1cc(F)cnc1N1CCN(C(=O)c2cc3c(-c4ccc(C)c(C#N)c4)cc(C4=CCCN(C(=O)CCn5ccnn5)C4)c(F)c3[nH]2)CC1 [Example I-648]
4,< 100 nM,COc1ccncc1-c1cc(C2=CCCN(C(=O)CCn3ccnn3)C2)c(F)c2[nH]c(C(=O)N3CCN(c4ncc(F)cc4OC)CC3)cc12 [Example I-428]
5,< 100 nM,CCc1cnc(N2CCN(C(=O)c3cc4c(-c5cnccc5OC)cc(C5=CCCN(C(=O)CCn6ccnn6)C5)c(F)c4[nH]3)CC2)c(OC)c1 [Example I-453]
6,10000 to 100000 nM,COc1ncccc1-c1cc(C(=O)N2Cc3cnn(C)c3C2)cc2cc(C3=CCCN(C(=O)CCn4ccnn4)C3)n(CC3CC3)c12 [Example I-717]
7,< 100 nM,CCc1ccncc1-c1cc(C2=CCCN(C(=O)CCn3ccnn3)C2)c(F)c2[nH]c(C(=O)N3CCN(c4ncccc4OC4CC4)CC3)cc12 [Example I-479]
8,< 100 nM,Cc1cc(-c2cc(C3=CCCN(C(=O)CCn4ccnn4)C3)cc3cc(C(=O)N(C)C)oc23)n(C)n1 [Example I-1070]
9,< 100 nM,COc1cc(F)cnc1N1CCN(C(=O)c2cc3c(C4CN(C)C4)cc(C4=CCCN(C(=O)CCn5ccnn5)C4)c(F)c3[nH]2)CC1 [Example I-785]
10,> 100000 nM,COc1cccnc1N1CCN(C(=O)c2cc3c(-c4cccc(F)c4OC)cc(C4=CCCN(C(=O)CCn5ccnn5)C4)c(F)c3[nH]2)CC1 [Example I-399]
11,< 100 nM,COc1cc(F)cnc1N1CCN(C(=O)c2cc3c(C4=CCC(F)(F)CC4)cc(C4=CCCN(C(=O)CCn5ccnn5)C4)c(F)c3[nH]2)CC1 [Example I-1158]
12,< 100 nM,COc1cc(F)cnc1N1CCN(C(=O)c2cc3c(C(F)F)cc(C4=CCCN(C(=O)CCn5ccnn5)C4)c(F)c3[nH]2)CC1 [Example I-532]
13,< 100 nM,COc1cc(F)cnc1N1CCN(C(=O)c2cc3c(C4=CCOC4)cc(C4=CCCN(C(=O)CCn5ccnn5)C4)c(F)c3[nH]2)CC1 [Example I-639]
14,< 100 nM,COc1cc(F)cnc1N1CCN(C(=O)c2cc3c(-c4cnn(C5CC5)c4)cc(C4=CCCN(C(=O)CCn5ccnn5)C4)c(F)c3[nH]2)CC1 [Example I-1151]
15,< 100 nM,COc1ncccc1-c1cc(C2=CCCN(C(=O)CCn3ccnn3)C2)cc2cc(C(=O)N(C)C)oc12 [Example I-1082]
16,< 100 nM,CN(C)C(=O)c1cc2cc(C3=CCCN(C(=O)CCn4ccnn4)C3)cc(NCc3cccc4ncccc34)c2o1 [Example I-871]
17,> 100000 nM,COc1ccccc1-c1cc(C2=CCCN(C(=O)CCn3ccnn3)C2)c(F)c2[nH]c(C(=O)NC(C#N)c3ccccc3)cc12 (stereo not drawn) [Example I-772]
18,< 100 nM,COc1ccccc1-c1cc(C2=CCCN(C(=O)CCn3ccnn3)C2)c(F)c2[nH]c(C(=O)N3CCN(c4ncccc4OC(C)C)CC3)cc12 [Example I-332]
19,10000 to 100000 nM,"COc1ccccc1-c1cc(C2=CCCN(C(=O)C3Cc4ccccc4CN3C=O)C2)cc2cc(C(=O)N(C)C)oc12 (stereo not drawn) [Example I-803, 5-(1-(2-formyl-1,2,3,4-tetrahydroisoquinoline-3-carbonyl)-1,2,5,6-tetrahydropyridin-3-yl)-7-(2-methoxyphenyl)-N,N-dimethylbenzofuran-2-carboxamide]"
20,> 100000 nM,CCOc1ccncc1-c1cc(C2=CCCN(C(=O)CCn3ccnn3)C2)c(F)c2[nH]c(C(=O)N3CCN(c4ccccc4OC)CC3)cc12 [Example I-406]
21,< 100 nM,COc1ccccc1-c1cc(C2=CCCN(C(=O)CCn3ccnn3)C2)c(F)c2[nH]c(C(=O)N3CCN(c4cc(F)c5ncccc5c4)CC3)cc12 [Example I-953]
22,< 100 nM,COc1ccccc1-c1cc(C2=CCCN(C(=O)CCn3ccnn3)C2)c(F)c2[nH]c(C(=O)N3CCN(c4ncc(C(F)(F)F)cc4OC)CC3)cc12 [Example I-941]
23,< 100 nM,CCOc1c(F)cccc1-c1cc(C2=CCCN(C(=O)CCn3ccnn3)C2)c(F)c2[nH]c(C(=O)N3CCN(c4ncc(F)cc4OC)CC3)cc12 [Example I-643]
